Measured values taken from patent US20240262801A1, “COMPOUNDS HAVING 5-(2-FLUORO-6-HYDROXYPHENYL)-1,2,5-THIADIAZOLIDIN-3-ONE 1,1-DIOXIDE AS INHIBITORS OF PROTEIN KINASE PHOSPHATASE ENZYMES” (Ness Therapeutics, Inc., priority 2021, published 2024).
Where a name gives a salt, the structure may show the parent alone. Read-outs that look alike come from different tables or passages of the source.

Tests used:
[1] = tested on: B16F10 mouse melanoma cells; test: Tumor cells B16F10 cellular growth IFNγ-induced inhibition assay (CellTiter-Glo); assay type: cell-based; conditions: for IC50: B16-F10, 72 h, 3 days incubation; for inhibition at 100 µM: B16-F10, B16F10, 100 μM compound
Protocol: B16F10 mouse melanoma cells (ATCC Cat #CRL-6475) were seeded at a density of 500 cells per well in a 384-well clear bottom plate (Corning Cat #3712, Corning, N.Y.) in 40 μL total volume of DMEM+10% FBS (PanEco Cat #C420, Russia and Sigma Cat #F4135, St. Louis, Mo.). Cells were allowed to adhere overnight at 37° C., 5% CO2. On the following day, 250× solutions of compounds in DMSO (Sigma Cat #D2650) were prepared into […] plate (Diamond Well Plate, Axigen, Cat #P-384-120SQ-C-S) (final concentration of 1×) and DMSO only controls were included. Dilution Plate (Diamond Well Plate (Axigen, Cat #P-384-120SQ-C-S) was prepared by adding 49 μL of culture medium per well: half of the plate with culture medium only, half with culture medium+IFNγ (5 ng/ml). A 1 μL aliquot of 250× compounds ([…] plate) was added to 49 μL of culture medium (Dilution plate), then a 10 μL aliqut of the mixture was transferred to Reaction plate with 40 μL of cells followed by centrifugation at 240 g for 1 min. After 3 days of incubation, 10 μL of CellTiter-Glo (Promega) was added to the cells, plates were centrifuged at 240 g for 1 min, and luminescence signal was measured. For each compound, the percent growth inhibition at every compound dose level was calculated relative to the “DMSO/with IFNγ” control and used to determine the IC50.

GST-tagged PTPN2 protein = biological target: T1, GST-tagged PTPN2 protein (Homo sapiens, UniProt P17706); test: Primary assay of PTPN2 enzymatic activity inhibition (DiFMUP fluorescence); assay type: biochemical; conditions: DiFMUP substrate 2 μM, 60 min at RT
T1 construct: purchased ActiveMotif 31592
T1 sequence (P17706 with tags, fused parts or gaps): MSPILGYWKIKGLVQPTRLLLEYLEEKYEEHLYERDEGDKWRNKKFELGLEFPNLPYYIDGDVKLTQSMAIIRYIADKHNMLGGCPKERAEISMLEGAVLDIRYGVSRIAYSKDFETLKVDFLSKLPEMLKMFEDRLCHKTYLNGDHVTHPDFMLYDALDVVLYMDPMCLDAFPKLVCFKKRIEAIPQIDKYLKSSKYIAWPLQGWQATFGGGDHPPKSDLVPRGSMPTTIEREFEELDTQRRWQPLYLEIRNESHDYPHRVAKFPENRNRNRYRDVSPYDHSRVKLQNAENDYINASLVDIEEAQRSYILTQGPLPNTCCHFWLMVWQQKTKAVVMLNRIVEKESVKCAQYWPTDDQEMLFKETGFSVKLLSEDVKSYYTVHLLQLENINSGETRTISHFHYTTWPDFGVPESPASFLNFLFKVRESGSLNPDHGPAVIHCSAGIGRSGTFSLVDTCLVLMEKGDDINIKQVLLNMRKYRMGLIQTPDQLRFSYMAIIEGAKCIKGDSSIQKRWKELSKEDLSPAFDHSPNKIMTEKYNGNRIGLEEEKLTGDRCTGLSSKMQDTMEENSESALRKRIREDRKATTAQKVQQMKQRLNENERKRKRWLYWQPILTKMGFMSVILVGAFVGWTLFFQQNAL
Protocol: Compound activity was determined using GST-tagged PTPN2 protein (Cat #31592, ActiveMotif) (SEQ ID NO: 1) in an in vitro enzymatic reaction. The enzymatic reaction was carried out in assay buffer (50 mM HEPES Na salt pH 7.2-7.4, 2 mM EDTA, 100 mM NaCl, 52 ng/μL BSA, and 6 mM DTT). The compounds were dispensed on a 384 well Diamond Well Plate (Axigen, Cat #P-384-120SQ-C-S) using the Biomek FX liquid handling system at 100× solutions of compounds in DMSO. 2× PTPN2 (final concentration 0.004 ng/μL) was prepared in 1× Assay buffer and 25 μL of mixture per well was added into Reaction plate (Optiplate, black, Perkin Elmer, Cat #6007270). Add 25 μL of 1× buffer to Ctrl- (Substrate w/o PTPN2) wells followed by centrifugation at 100 g for 1 min. Next step the Compounds were added to Reaction plate using Biomek station via following steps: 3 ul of 100× compounds (in DMSO) were mixed with 27 μL of Assay Buffer, then 5 μL of this mixture was added to Reaction plate with 25 μL of PTPN2 Mix. Plates were centrifuged for 1 min at 100 g and incubated for another 10 minutes at room temperature. Finally, 20 μL of 2.5× Substrate (DiFUMP, Invitrogen™ Cat #D6567) mix was added into appropriate wells of Reaction plate to the final concentration of 2 μM, plate was centrifuged at 100 g for 1 min followed by incubation at RT for 60 min, and the Fluorescence Intensity was measured using a Microplate Reader (ClarioStar Plus, excitation 360 nm, emission 450 nm). The % inhibition was then used to calculate the IC50 values. The IC50 values are shown in Table A1, wherein “A” corresponds to IC50<5.0 nm, “B” corresponds to 5.0 nm≤IC50<10.0 nm, “C” corresponds to 10.0 nm≤IC50<50.0 nm, “D” corresponds to 50.0 nm≤IC50<100.0 nm, and “E” corresponds to 100.0 nm≤IC50<500.0 nm, and “F” corresponds to 500.0 nm≤IC50.

[2] = B16F10, + IFNγ, read-out: IC50 + IFNγ
[3] = B16F10, no IFNγ, read-out: IC50 no IFNγ
[4] = + IFNγ, read-out: % Growth Inhibition at 100 μM + IFNγ
[5] = no IFNγ, read-out: % Growth Inhibition at 100 μM no IFNγ

| SMILES | IC50 [1, 2] [µM] | IC50 [1, 3] [µM] | inhibition at 100 µM [1, 4] [%] | inhibition at 100 µM [1, 5] [%] | IC50 (GST-tagged PTPN2 protein) [µM] |
| --- | --- | --- | --- | --- | --- |
| COc1cccc(-c2cc(O)c(N3CC(=O)NS3(=O)=O)c(F)c2)c1 [Example 1, 5-(3-fluoro-5-hydroxy-3′-methoxybiphenyl-4-yl)-1,2,5-thiadiazolidin-3-one 1,1-dioxide] | ≥ 100 | ≥ 100 | 10 to 50 | 10 to 50 | 0.1 to 0.5 |
| O=C1CN(c2c(O)cc(-c3cccc(F)c3)cc2F)S(=O)(=O)N1 [Example 2, 5-(3,3′-difluoro-5-hydroxybiphenyl-4-yl)-1,2,5-thiadiazolidin-3-one 1,1-dioxide] | 50 to 100 | ≥ 100 | 50 to 75 | 10 to 50 | 0.1 to 0.5 |
| COc1ccc(-c2cc(O)c(N3CC(=O)NS3(=O)=O)c(F)c2)cc1 [Example 3, 5-(3-fluoro-5-hydroxy-4′-methoxybiphenyl-4-yl)-1,2,5-thiadiazolidin-3-one 1,1-dioxide] | ≥ 100 | ≥ 100 | 10 to 50 | 10 to 50 | 0.1 to 0.5 |
| O=C1CN(c2c(O)cc(-c3cc(F)cc(F)c3)cc2F)S(=O)(=O)N1 [Example 4, 5-(3,3′,5′-trifluoro-5-hydroxybiphenyl-4-yl)-1,2,5-thiadiazolidin-3-one 1,1-dioxide] | ≥ 100 | ≥ 100 | 10 to 50 | 10 to 50 | 0.1 to 0.5 |
| CCOc1ccccc1-c1cc(O)c(N2CC(=O)NS2(=O)=O)c(F)c1 [Example 5, 5-(2′-ethoxy-3-fluoro-5-hydroxybiphenyl-4-yl)-1,2,5-thiadiazolidin-3-one 1,1-dioxide] | ≥ 100 | ≥ 100 | 50 to 75 | 10 to 50 | 0.1 to 0.5 |
| Cc1ccccc1-c1cc(O)c(N2CC(=O)NS2(=O)=O)c(F)c1 [Example 6, 5-(3-fluoro-5-hydroxy-2′-methylbiphenyl-4-yl)-1,2,5-thiadiazolidin-3-one 1,1-dioxide] | – | – | – | – | ≥ 0.5 |
| O=C1CN(c2c(O)cc(-c3ccccc3F)cc2F)S(=O)(=O)N1 [Example 7, 5-(2′,3-difluoro-5-hydroxybiphenyl-4-yl)-1,2,5-thiadiazolidin-3-one 1,1-dioxide] | 50 to 100 | ≥ 100 | 50 to 75 | 10 to 50 | 0.1 to 0.5 |
| O=C1CN(c2c(O)cc(-c3ccc(F)cc3)cc2F)S(=O)(=O)N1 [Example 8, 5-(3,4′-difluoro-5-hydroxybiphenyl-4-yl)-1,2,5-thiadiazolidin-3-one 1,1-dioxide] | ≥ 100 | ≥ 100 | 10 to 50 | 10 to 50 | 0.1 to 0.5 |
| Cc1cccc(-c2cc(O)c(N3CC(=O)NS3(=O)=O)c(F)c2)c1 [Example 9, 5-(3-fluoro-5-hydroxy-3′-methylbiphenyl-4-yl)-1,2,5-thiadiazolidin-3-one 1,1-dioxide] | – | – | – | – | 0.1 to 0.5 |
| Cc1ccc(-c2cc(O)c(N3CC(=O)NS3(=O)=O)c(F)c2)cc1 [Example 10, 5-(3-fluoro-5-hydroxy-4′-methylbiphenyl-4-yl)-1,2,5-thiadiazolidin-3-one 1,1-dioxide] | – | – | – | – | 0.1 to 0.5 |
| O=C1CN(c2c(O)cc(-c3cccc(NC4CCN(S(=O)(=O)Cc5ccccc5Cl)CC4)c3)cc2F)S(=O)(=O)N1 [Example 11, 5-[3′-({1-[(2-chlorobenzyl)sulfonyl]piperidin-4-yl}amino)-3-fluoro-5-hydroxybiphenyl-4-yl]-1,2,5-thiadiazolidin-3-one 1,1-dioxide] | 50 to 100 | ≥ 100 | 50 to 75 | 10 to 50 | 0.1 to 0.5 |
| O=C1CN(c2c(O)cc(-c3cccc(NC4CCN(S(=O)(=O)Cc5ccccc5)CC4)c3)cc2F)S(=O)(=O)N1 [Example 12, 5-(3′-{[1-(benzylsulfonyl)piperidin-4-yl]amino}-3-fluoro-5-hydroxybiphenyl-4-yl)-1,2,5-thiadiazolidin-3-one 1,1-dioxide] | ≥ 100 | ≥ 100 | 10 to 50 | 10 to 50 | 0.1 to 0.5 |
| CN(c1ccccc1)S(=O)(=O)Nc1cc(O)c(N2CC(=O)NS2(=O)=O)c(F)c1 [Example 31, N′-[4-(1,1-dioxido-4-oxo-1,2,5-thiadiazolidin-2-yl)-3-fluoro-5-hydroxyphenyl]-N-methyl-N-phenylsulfuric diamide] | – | – | – | – | 0.01 to 0.05 |
| CN(C1CCCCC1)S(=O)(=O)Nc1cc(O)c(N2CC(=O)NS2(=O)=O)c(F)c1 [Example 32, N-cyclohexyl-N′-[4-(1,1-dioxido-4-oxo-1,2,5-thiadiazolidin-2-yl)-3-fluoro-5-hydroxyphenyl]-N-methylsulfuric diamide] | – | – | – | – | 0.01 to 0.05 |
| O=C1CN(c2c(O)cc(NC(=O)NCc3ccccc3)cc2F)S(=O)(=O)N1 [Example 60, 1-benzyl-3-[4-(1,1-dioxido-4-oxo-1,2,5-thiadiazolidin-2-yl)-3-fluoro-5-hydroxyphenyl]urea] | – | – | – | – | 0.01 to 0.05 |
| O=C1CN(c2c(O)cc(NC(=O)Nc3ccc(N4CCOCC4)cc3)cc2F)S(=O)(=O)N1 [Example 65, 1-[4-(1,1-dioxido-4-oxo-1,2,5-thiadiazolidin-2-yl)-3-fluoro-5-hydroxyphenyl]-3-[4-(morpholin-4-yl)phenyl]urea] | – | – | – | – | < 0.005 |
| CC(C)(C)OC(=O)N1CCN(c2ccc(NC(=O)Nc3cc(O)c(N4CC(=O)NS4(=O)=O)c(F)c3)cc2)CC1 [Example 66, tert-butyl 4-[4-({[4-(1,1-dioxido-4-oxo-1,2,5-thiadiazolidin-2-yl)-3-fluoro-5-hydroxyphenyl]carbamoyl}amino)phenyl]piperazine-1-carboxylate] | – | – | – | – | < 0.005 |
| O=C1CN(c2c(O)cc(NC(=O)Nc3ccc(N4CCNCC4)cc3)cc2F)S(=O)(=O)N1 [Example 67, 1-[4-(1,1-dioxido-4-oxo-1,2,5-thiadiazolidin-2-yl)-3-fluoro-5-hydroxyphenyl]-3-[4-(piperazin-1-yl)phenyl]urea hydrochloride] | – | – | – | – | < 0.005 |
| COc1ccc(NC(=O)Nc2cc(O)c(N3CC(=O)NS3(=O)=O)c(F)c2)cc1C(F)(F)F [Example 68, 1-[4-(1,1-dioxido-4-oxo-1,2,5-thiadiazolidin-2-yl)-3-fluoro-5-hydroxyphenyl]-3-[4-methoxy-3-(trifluoromethyl)phenyl]urea] | – | – | – | – | < 0.005 |
| CC(C)c1ccc(NC(=O)Nc2cc(O)c(N3CC(=O)NS3(=O)=O)c(F)c2)cc1 [Example 70, 1-[4-(1,1-dioxido-4-oxo-1,2,5-thiadiazolidin-2-yl)-3-fluoro-5-hydroxyphenyl]-3-[4-(propan-2-yl)phenyl]urea] | – | – | – | – | < 0.005 |
| O=C1CN(c2c(O)cc(NC(=O)Nc3ccc(OC(F)(F)F)cc3)cc2F)S(=O)(=O)N1 [Example 71, 1-[4-(1,1-dioxido-4-oxo-1,2,5-thiadiazolidin-2-yl)-3-fluoro-5-hydroxyphenyl]-3-[4-(trifluoromethoxy)phenyl]urea] | – | – | – | – | < 0.005 |
| O=C1CN(c2c(O)cc(NC(=O)Nc3ccccc3F)cc2F)S(=O)(=O)N1 [Example 93, 1-[4-(1,1-dioxido-4-oxo-1,2,5-thiadiazolidin-2-yl)-3-fluoro-5-hydroxyphenyl]-3-(2-fluorophenyl)urea] | – | – | – | – | < 0.005 |
